Each molecule was assayed against myeloperoxidase (MPO) (Homo sapiens (Human), UniProt P05164) (assay: MPO chlorination assay (APF)). Settings: not given.
myeloperoxidase (MPO), sequence (P05164 49-745): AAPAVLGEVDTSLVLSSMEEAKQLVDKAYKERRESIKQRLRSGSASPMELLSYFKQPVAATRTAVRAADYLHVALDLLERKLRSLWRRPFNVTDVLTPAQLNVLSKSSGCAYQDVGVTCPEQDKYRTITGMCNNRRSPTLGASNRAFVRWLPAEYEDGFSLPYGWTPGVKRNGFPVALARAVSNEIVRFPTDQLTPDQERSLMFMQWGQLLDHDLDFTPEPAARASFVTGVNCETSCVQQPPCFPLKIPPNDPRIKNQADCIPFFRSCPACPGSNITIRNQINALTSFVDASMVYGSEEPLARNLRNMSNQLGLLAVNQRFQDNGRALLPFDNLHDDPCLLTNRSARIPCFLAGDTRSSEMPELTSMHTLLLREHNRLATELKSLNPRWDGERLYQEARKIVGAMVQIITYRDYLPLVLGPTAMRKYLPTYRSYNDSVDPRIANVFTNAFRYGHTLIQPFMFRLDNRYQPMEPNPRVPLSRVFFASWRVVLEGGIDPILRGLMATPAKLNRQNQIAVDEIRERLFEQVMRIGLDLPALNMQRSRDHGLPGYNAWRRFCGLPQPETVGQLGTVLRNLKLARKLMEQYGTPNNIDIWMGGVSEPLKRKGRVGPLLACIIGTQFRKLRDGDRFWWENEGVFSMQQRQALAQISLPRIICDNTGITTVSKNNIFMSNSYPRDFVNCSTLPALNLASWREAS
Format: biochemical
Procedure: MPO chlorination activity was measured in 100 mM KPi (pH 7.4) by utilizing the non-fluorescent reagent Aminophenyl fluorescein (APF, Invitrogen catalog #A36003). APF is cleaved by (—OCl) to yield the fluorescent compound fluorescein. Reactions were carried out in 50 μL total volume by adding a 25 μL mixture of 200 pM myeloperoxidase and 120 mM NaCl to 100 nL inhibitor in 100% DMSO in a 384 well, non-binding surface clear bottom plate (CORNING® #3655). Enzyme, inhibitor, and chloride were preincubated for ten minutes at rt.
After the ten minute preincubation, 25 μL of an APF mixture containing […], 120 mM NaCl and 10 μM H2O2 was added to the plate using the internal dispensing system of a Hammatsu FDSS 6000. Kinetic determinations were carried out immediately on the FDSS 6000 (3 minute kinetic read, 1 read every second, ex: 485 nm, em: 535 nm). IC50 values for inhibitors were calculated by taking the slope of the linear portion of the kinetic measurement (20 seconds to ˜80-120 secs). […]
[formula] where A=minimal Y value (activity level of inhibited sample), B=maximal Y value (activity level of uninhibited sample), C=Log IC50, D=Hill Slope, x=concentration of inhibitor. EPX Bromination Assay
For Nc1cc(SCc2cn(-c3cnccn3)nc2C(F)F)c2nn[nH]c2n1 [Example 152, 7-(((3-(difluoromethyl)-1-(pyrazin-2-yl)-1H-pyrazol-4-yl)methyl)thio)-3H-[1,2,3]triazolo [4,5-b]pyridin-5-amine], the IC50 was 200 to 1000 nM.
For Nc1cc(SCc2nn(-c3ccccc3)nc2C(F)F)c2nn[nH]c2n1 [Example 153, 7-(((5-(difluoromethyl)-2-phenyl-2H-1,2,3-triazol-4-yl)methyl)thio)-3H-[1,2,3]triazolo [4,5-b]pyridin-5-amine], the IC50 was 60 to 200 nM.

Same assay, conditions: MPO chlorination assay, ranges given; read-out: MPO chlorination assay IC50
With Cc1nn(-c2cccc(F)c2)nc1CSc1cc(N)nc2[nH]nnc12 [Example 67, 7-(((2-(3-fluorophenyl)-5-methyl-2H-1,2,3-triazol-4-yl)methyl)thio)-3H-[1,2,3] triazolo[4,5-b]pyridin-5-amine] the IC50 was 200 to 1000 nM.
CN(C)c1cc(-n2cc(CSc3cc(N)nc4[nH]nnc34)c(C(F)(F)F)n2)ccn1 [Example 141, 7-(((1-(2-(dimethylamino)pyridin-4-yl)-3-(trifluoromethyl)-1H-pyrazol-4-yl)methyl)thio)-3H-[1,2,3]triazolo [4,5-b]pyridin-5-amine] gave an IC50 of at most 60 nM.
In the case of CN(C)c1cccc(-n2cc(CSc3cc(N)nc4[nH]nnc34)c(C(F)(F)F)n2)n1 [Example 140, 7-(((1-(6-(dimethylamino)pyridin-2-yl)-3-(trifluoromethyl)-1H-pyrazol-4-yl)methyl)thio)-3H-[1,2,3]triazolo [4,5-b]pyridin-5-amine], the IC50 is reported as 200 to 1000 nM.
Molecule Nc1cc(SCc2cccc(F)c2)c2nn[nH]c2n1 [Example 6, 7-((3-fluorobenzyl)thio)-3H-[1,2,3]triazolo [4,5-b]pyridin-5-amine] has an IC50 of at most 60 nM.
Molecule Nc1cc(SCc2cn(-c3ccnnc3)nc2C(F)F)c2nn[nH]c2n1 [Example 143] has an IC50 of 200 to 1000 nM.
In the case of Cc1oc(-c2c(F)cc(F)cc2F)nc1CSc1cc(N)nc2[nH]nnc12 [Example 37, 7-(((5-methyl-2-(2,4,6-trifluorophenyl)oxazol-4-yl)methyl)thio)-3H-[1,2,3] triazolo[4,5-b]pyridin-5-amine], the IC50 is reported as 200 to 1000 nM.
Nc1nc(SCc2ccccc2)c2nn[nH]c2n1 [Example 155, 7-(benzylthio)-3H-[1,2,3] triazolo[4,5-d]pyrimidin-5-amine] showed an IC50 of 60 to 200 nM.
CCc1nn(-c2ccccc2)nc1CSc1cc(N)nc2[nH]nnc12 [Example 63, 7-(((5-ethyl-2-phenyl-2H-1,2,3-triazol-4-yl)methyl)thio)-3H-[1,2,3]triazolo[4,5-b]pyridin-5-amine] gave an IC50 of 60 to 200 nM.
N#Cc1cc(Br)ccc1CSc1cc(N)nc2[nH]nnc12 [Example 21, 2-(((5-amino-3H-[1,2,3]triazolo[4,5-b]pyridin-7-yl)thio)methyl)-5-bromobenzonitrile] gave an IC50 of 60 to 200 nM.
Molecule Nc1cc(SCc2c(Cl)cccc2S(N)(=O)=O)c2nn[nH]c2n1 [Example 64, 2-(((5-amino-3H-[1,2,3]triazolo[4,5-b]pyridin-7-yl)thio)methyl)-3-chlorobenzenesulfonamide] has an IC50 of at most 60 nM.
Work on Nc1cc(SCc2ccccc2Cl)c2nn[nH]c2n1 [Example 4, 7-((2-chlorobenzyl)thio)-3H-[1,2,3]triazolo [4,5-b]pyridin-5-amine] yielded an IC50 of at most 60 nM.
In the case of Cn1ncc(CSc2nc(N)nc3[nH]nnc23)c1C(F)(F)F [Example 163, 7-(((1-methyl-5-(trifluoromethyl)-1H-pyrazol-4-yl)methyl)thio)-3H-[1,2,3]triazolo[4,5-d] pyrimidin-5-amine], the IC50 is reported as 200 to 1000 nM.
Cn1nc(C2CC2)cc1CSc1nc(N)nc2[nH]nnc12 [Example 165, 7-(((3-cyclopropyl-1-methyl-1H-pyrazol-5-yl)methyl)thio)-3H-[1,2,3] triazolo[4,5-d]pyrimidin-5-amine] gave an IC50 of 200 to 1000 nM.
Nc1cc(SC(C(=O)NCc2ccccc2)c2ccccc2)c2nn[nH]c2n1 (stereo not drawn) [Example 127, 2-((5-Amino-3H-[1,2,3]triazolo[4,5-b]pyridin-7-yl)thio)-N-benzyl-2-phenylacetamide] was tested, and the IC50 was 200 to 1000 nM.
With CN(C)Cc1ccccc1-n1cc(CSc2cc(N)nc3[nH]nnc23)c(C(F)F)n1 [Example 150, 7-(((3-(difluoromethyl)-1-(2-((dimethylamino)methyl)phenyl)-1H-pyrazol-4-yl)methyl)thio)-3H-[1,2,3]triazolo [4,5-b]pyridin-5-amine] the IC50 was at most 60 nM.
In the case of Nc1cc(SCc2cc(F)ccc2F)c2nn[nH]c2n1 [Example 19, 7-((2,5-difluorobenzyl)thio)-3H-[1,2,3]triazolo[4,5-b] pyridin-5-amine], the IC50 is reported as at most 60 nM.
N#Cc1ncccc1CSc1cc(N)nc2[nH]nnc12 [Example 108, 3-(((5-amino-3H-[1,2,3]triazolo[4,5-b]pyridin-7-yl)thio)methyl)picolinonitrile] was tested, and the IC50 was 60 to 200 nM.
With Cc1cc(CSc2cc(N)nc3[nH]nnc23)n(C)n1 [Example 58, 7-(((1,3-dimethyl-1H-pyrazol-5-yl)methyl)thio)-3H-[1,2,3]triazolo[4,5-b] pyridin-5-amine] the IC50 was 200 to 1000 nM.
For Nc1cc(SCc2cn(-c3cccnc3)nc2C(F)(F)F)c2nn[nH]c2n1 [Example 136], the IC50 was at most 60 nM.
For Cn1nc(-c2ccccc2)c(CSc2cc(N)nc3[nH]nnc23)c1Cl [Example 71, 7-(((5-chloro-1-methyl-3-phenyl-1H-pyrazol-4-yl)methyl)thio)-3H-[1,2,3] triazolo[4,5-b]pyridin-5-amine], the IC50 was 200 to 1000 nM.
Work on N#Cc1ccc(F)cc1CSc1cc(N)nc2[nH]nnc12 [Example 20, 2-(((5-amino-3H-[1,2,3]triazolo[4,5-b]pyridin-7-yl)thio)methyl)-4-fluorobenzonitrile] yielded an IC50 of at most 60 nM.
Molecule COC(=O)c1ncccc1CSc1cc(N)nc2[nH]nnc12 [Example 26, methyl 3-(((5-amino-3H-[1,2,3]triazolo[4,5-b]pyridin-7-yl)thio)methyl)picolinate] has an IC50 of 200 to 1000 nM.
Nc1cc(SC(C(=O)c2ccccc2)c2ccccc2)c2nn[nH]c2n1 (stereo not drawn) [Example 40, 2-((5-amino-3H-[1,2,3]triazolo[4,5-b]pyridin-7-yl)thio)-1,2-diphenylethanone] was tested, and the IC50 was 200 to 1000 nM.
Work on CC1(NC(=O)c2ccc(F)c(CSc3cc(N)nc4[nH]nnc34)c2)CC1 [Example 55, 3-(((5-amino-3H-[1,2,3]triazolo[4,5-b]pyridin-7-yl)thio)methyl)-4-fluoro-N-(1-methylcyclopropyl) benzamide] yielded an IC50 of 200 to 1000 nM.
For Nc1cc(SCc2ccccc2CS(=O)(=O)c2ccccc2)c2nn[nH]c2n1 [Example 35, 7-((2-((phenylsulfonyl)methyl)benzyl)thio)-3H-[1,2,3]triazolo[4,5-b]pyridin-5-amine], the IC50 was 60 to 200 nM.
Molecule Nc1cc(SCc2cn(-c3ccncc3)nc2C(F)F)c2nn[nH]c2n1 [Example 142] has an IC50 of at most 60 nM.
Nc1cc(SCc2ccc(Cl)cc2)c2nn[nH]c2n1 [Example 8, 7-((4-chlorobenzyl)thio)-3H-[1,2,3]triazolo [4,5-b]pyridin-5-amine] showed an IC50 of at most 60 nM.
In the case of N#Cc1cccc(F)c1CSc1cc(N)nc2[nH]nnc12 [Example 68, 2-(((5-amino-3H-[1,2,3]triazolo[4,5-b]pyridin-7-yl)thio)methyl)-3-fluorobenzonitrile], the IC50 is reported as at most 60 nM.
Nc1cc(SCc2ccc(S(N)(=O)=O)cc2Cl)c2nn[nH]c2n1 [Example 119, 4-(((5-amino-3H-[1,2,3]triazolo[4,5-b]pyridin-7-yl)thio)methyl)-3-chlorobenzenesulfonamide] showed an IC50 of 60 to 200 nM.
Molecule N#Cc1ccc(C2CC2)cc1CSc1cc(N)nc2[nH]nnc12 [Example 87, 2-(((5-amino-3H-[1,2,3]triazolo[4,5-b]pyridin-7-yl)thio)methyl)-4-cyclopropylbenzonitrile] has an IC50 of at most 60 nM.
Work on Nc1cc(SCc2cccc(CN3CCCC3)c2)c2nn[nH]c2n1 [Example 15, 7-((3-(Pyrrolidin-1-ylmethyl)benzyl)thio)-3H-[1,2,3]triazolo[4,5-b]pyridin-5-amine] yielded an IC50 of at most 60 nM.
In the case of N#Cc1cccc(-n2cccn2)c1CSc1cc(N)nc2[nH]nnc12 [Example 129, 2-(((5-Amino-3H-[1,2,3]triazolo[4,5-b]pyridin-7-yl)thio)methyl)-3-(1H-pyrazol-1-yl)benzonitrile], the IC50 is reported as 200 to 1000 nM.
COC(=O)C(Sc1cc(N)nc2[nH]nnc12)c1ccccc1Cl (stereo not drawn) [Example 50, methyl 2-((5-amino-3H-[1,2,3]triazolo[4,5-b]pyridin-7-yl)thio)-2-(2-chlorophenyl)acetate] showed an IC50 of 60 to 200 nM.
Molecule N#Cc1ccc(CSc2cc(N)nc3[nH]nnc23)c(Cl)c1 [Example 124, 4-(((5-amino-3H-[1,2,3]triazolo[4,5-b]pyridin-7-yl)thio)methyl)-3-chlorobenzonitrile] has an IC50 of 200 to 1000 nM.
COC(=O)c1ccc2nc(CSc3cc(N)nc4[nH]nnc34)ccc2c1 [Example 31, methyl 2-(((5-amino-3H-[1,2,3]triazolo[4,5-b]pyridin-7-yl)thio)methyl)quinoline-6-carboxylate] was tested, and the IC50 was 200 to 1000 nM.
In the case of Cn1nc(C2CC2)c(Cl)c1CSc1cc(N)nc2[nH]nnc12 [Example 111, 7-(((4-chloro-3-cyclopropyl-1-methyl-1H-pyrazol-5-yl)methyl)thio)-3H-[1,2,3] triazolo[4,5-b]pyridin-5-amine], the IC50 is reported as 60 to 200 nM.
For N#Cc1ccc(-n2cccn2)c(CSc2cc(N)nc3[nH]nnc23)c1 [Example 132, 3-(((5-amino-3H-[1,2,3]triazolo[4,5-b]pyridin-7-yl)thio)methyl)-4-(1H-pyrazol-1-yl) benzonitrile], the IC50 was 60 to 200 nM.

— patent US10981879B2, “Thioether triazolopyridine and triazolopyrimidine inhibitors of myeloperoxidase” (BRISTOL-MYERS SQUIBB COMPANY, priority 2014, dated 2021)
